Reference: US9382230B2, “Methods and compositions for modulating Ire1, SRC and ABL activity” (The Regents of the University of California, priority 2008, dated 2016)
pIC50: −log10 of the molar value.

Legend:
WT Src = WT Src (Homo sapiens, UniProt P12931); test: c-Src kinase cross-reactivity assay; type: biochemical
Experimental: (§1) Assays for cross-reactivity with Src and Abl were also conducted. Purified c-Src or Abl were diluted in kinase reaction buffer (10 mM HEPES (pH 7.2), 10 mM MgCl2, 0.2 mM DTT) to a concentration of approximately 10 nM and pre-incubated with 1 mg/mL BSA, 2.5% (v/v) DMSO, 133 μM peptide (sequence EAIYAAPFKKK for Abl and EIYGEFKKK for c-Src), and varying concentrations of inhibitor. Kinase reactions were initiated by the addition of […] cold ATP supplemented with 5 mCi γ^32P ATP and allowed to proceed at room temperature (RT). At 10 minutes […] of the reactions were spotted onto phosphocellulose sheets (P81, Whatman) and subsequently soaked in was buffer (1.0% (v/v) phosphoric acid). The sheets were washed five times in buffer, dried, and transferred radioactivity was measured by phosphorimaging using a Typhoon™ scanner (Molecular Dynamics). Radioactive counts were quantified using ImageQuant software, and titration data were fit to a sigmoidal dose response to derive IC50 values using the Prism® software package. Dose responses were based on a 12 point inhibitor titration, using ⅓ dilutions starting from […].

WT Abl = WT Abl (Homo sapiens, UniProt P00519); test: Abl kinase cross-reactivity assay; type: biochemical
Experimental: as §1

human Ire1 = human Ire1 (Homo sapiens, UniProt O75460); test: In vitro cleavage of 32P-stem-loop RNA by human Ire1; type: biochemical; conditions: AD series of Ire1 modulators
Experimental: (§2) RNA cleavage reactions were conducted at 30° C. in buffer containing 20 mM HEPES (pH 7.5), 70 mM NaCl, 2 mM ADP (pH 7.0), 2 mM Mg(OAc)2, 5 mM DTT, 5% glycerol, less than 1 nM ^32p-labeled RNA substrate, and 3 nM-20 μM Ire1. Reaction solutions and buffers were designed using Biochem Lab Solutions 3.5. Reactions were prepared such that 1 μl of RNA was added to 9 μl of pre-warmed reaction mixture containing all components except RNA. Typically, 3-10 minute time courses were collected starting from 5 seconds for the first time point. At time intervals, 1 μl of solution was withdrawn from each reaction and mixed wish 6 μl stop solution containing 10 M urea, 0.1% SDS, 0.1 mM EDTA, 0.05% xylene cyanol, and 0.05% bromophenol blue. The samples were separated by a denaturing 10% PAGE and exposed on a phosphor storage screen. The screens were scanned on a Storm or a Typhoon instrument and quantified using ImageQuant 5.0 or GelQuant.NET 1.4 programs. The data were plotted and fit in SigmaPlot 6.0.
In vitro cleavage of ^32P-stem-loop RNA by human Ire1, with AD series of Ire1 modulators gave the following results: […]

Ire1 = test: Summary statement of Ire1 activation or inhibition (assay not specified)
Ire1KR32 = molecular target: T1, Ire1KR32 (Saccharomyces cerevisiae, UniProt P32361); test: RNase cleavage assay with Ire1 cytosolic constructs (Ire1KR32), co-factors and kinase inhibitors; type: biochemical; conditions: for effect of EDTA (chelation of magnesium) on RNase activity of Ire1KR32 stimulated by the substance: FIG. 3F; for activation of the RNase of Ire1KR32: FIG. 3A
T1 construct: Overview of the Ire1 constructs; GST (N); made in house; host or cells: E. coli BL21 CodonPlus (RIPL)
T1 sequence (P32361 with tags, fused parts or gaps): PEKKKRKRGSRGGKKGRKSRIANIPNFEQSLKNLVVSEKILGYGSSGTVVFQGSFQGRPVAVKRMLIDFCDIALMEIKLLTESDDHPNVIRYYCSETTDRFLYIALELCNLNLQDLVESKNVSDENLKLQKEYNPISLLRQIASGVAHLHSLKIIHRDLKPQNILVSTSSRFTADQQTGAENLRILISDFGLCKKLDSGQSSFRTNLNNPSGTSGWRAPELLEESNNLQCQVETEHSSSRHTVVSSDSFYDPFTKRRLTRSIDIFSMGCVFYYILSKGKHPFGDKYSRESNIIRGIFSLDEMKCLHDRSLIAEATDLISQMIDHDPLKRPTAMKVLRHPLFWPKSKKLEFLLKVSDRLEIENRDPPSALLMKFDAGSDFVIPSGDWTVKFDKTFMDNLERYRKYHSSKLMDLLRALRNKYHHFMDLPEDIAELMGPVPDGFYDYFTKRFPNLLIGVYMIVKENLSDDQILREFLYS
Experimental: as §2
Variants of the cytosolic portion of Ire1 that contain the kinase and the RNase domains (Ire1KR) and Ire1KR extended by 24 (Ire1KR24) or 32 (Ire1KR32) amino acids towards the N-terminus (FIG. 1A, FIG. 1C, FIG. 7) were prepared. These additional amino acid extensions are part of a ˜100 amino acid-long linker domain that tethers the kinase/RNase domains to the transmembrane domain. All three constructs cleaved site-specifically 5′-32p-labeled stem-loop oligoribonucleotides 14 derived from the XBP1 mRNA (FIG. 1B, FIG. 8). […] No ADP.Mg co-factor was required for the cooperative activation of the RNase.
Ire1KR32 was co-crystallized with inhibitors that were designed to target CDK2 and EGFR kinases. Certain kinase inhibitors fully activated the RNase function of Ire1 (FIG. 3A). This is the first example of wild-type Ire1 activation by synthetic compounds.
Crystals obtained with the inhibitor APY29 allowed the structure determination of the Ire1KR32-APY29 complex at 3.9 Å resolution. A well-resolved density for the inhibitor molecule was found in the ATP binding pocket of the Ire1 kinase domain (FIG. 3B). APY29 forms an extensive hydrogen-bonding network with the protein backbone formed by E746, L747, and C748 (FIG. 3C). Hydrogen bonds are likely to also form with two side chains at the active site, N751, and D828. […] Manual fitting of sunitinib guided by know structures of kinase.inhibitor complexes (e.g., PDB IDs 2G9X and 2F4J) predicts that the compound fills the nucleobase site, but not the sugar and the phosphate sub-sites. […] AIN54 could not be readily fit to the ATP pocket due to steric clashes arising partly because of the unusual position of beta strand β1 that covers the nucleotide-binding pocket of the Ire1 kinase.
This structural difference provides an excellent tool to test the role of magnesium in the RNase activity of Ire1. Accordingly, the effect of EDTA on the RNase activity of Ire1KR32 was examined.

yIre1 = molecular target: T2, yIre1 (Saccharomyces cerevisiae, UniProt P32361); test: RNA cleavage-based yIre1 activation assay; type: biochemical, yeast; parameters: unit not given here; conditions: 3 μM yIre1, stem loop RNA, 15 μM effector
T2 construct: GST (N); made in house; host or cells: E. coli BL21 CodonPlus (RIPL)
T2 sequence (P32361 with tags, fused parts or gaps limits assumed): T1 sequence (P32361 with tags, fused parts or gaps)
Experimental: The RNase Cleavage Assay.
as §2
RNA cleavage can be used to assess yIre1 activation as shown by FIG. 20 and the table below (3 μM yIre1, stem loop RNA, 15 μM effector): […]

[1] = system: Xbp-1 mRNA splicing (UPR activation through Ire1) in HEK293 cells; test: XBP-1 mRNA splicing by RT-PCR in HEK293 cells (UPR); type: cell-based, mammalian; conditions: for % splicing mRNA XBP-I Average: Hek293 cells treated for 4 hrs, RT-PCR; for in vivo activation of Ire1: summary statement
Experimental: The effect of tunicamycin, SU11248, DJM2005, APY24, and APY29 on Ire1 activity was tested in mammalian cells using HEK293 cells as a model system. Cells were treated according to the methods described in Lin J H et al., Science 318:944 (2007). After treatment with the corresponding agents for the indicated time, Xbp-1 mRNA splicing was determined by RT-PCR. Unspliced (u) and spliced (s) Xbp1-mRNA products are indicated and serve as a measure of UPR activation through Ire1.
Exemplary compounds were assayed for their effect on UPR. Results are set forth in FIGS. 18-19 and in the table below.

[2] = system: XBP1-GFP reporter in Hek293-FT cells; test: FACS on Hek293-FT cells transfected with XBP1-GFP reporter; type: cell-based; conditions: treated for 24 hrs
Experimental: Exemplary compounds were assayed and the results are set froth in the table below.

Sequence of WT Src (P12931 whole entry): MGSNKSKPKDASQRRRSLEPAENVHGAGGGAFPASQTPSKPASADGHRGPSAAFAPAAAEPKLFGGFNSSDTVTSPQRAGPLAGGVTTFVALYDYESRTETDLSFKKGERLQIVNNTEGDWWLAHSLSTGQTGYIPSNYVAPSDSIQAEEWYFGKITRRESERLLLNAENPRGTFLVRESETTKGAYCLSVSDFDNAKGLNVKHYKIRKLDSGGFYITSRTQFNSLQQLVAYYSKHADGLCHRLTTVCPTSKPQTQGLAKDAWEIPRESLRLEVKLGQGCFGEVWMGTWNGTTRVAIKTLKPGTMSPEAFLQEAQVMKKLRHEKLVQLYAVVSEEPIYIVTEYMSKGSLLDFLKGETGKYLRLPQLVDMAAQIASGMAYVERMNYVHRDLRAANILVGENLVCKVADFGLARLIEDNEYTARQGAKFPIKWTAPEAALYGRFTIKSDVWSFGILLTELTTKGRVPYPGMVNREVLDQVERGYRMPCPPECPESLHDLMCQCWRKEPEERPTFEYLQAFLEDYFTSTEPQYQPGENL
Sequence of WT Abl (P00519 whole entry): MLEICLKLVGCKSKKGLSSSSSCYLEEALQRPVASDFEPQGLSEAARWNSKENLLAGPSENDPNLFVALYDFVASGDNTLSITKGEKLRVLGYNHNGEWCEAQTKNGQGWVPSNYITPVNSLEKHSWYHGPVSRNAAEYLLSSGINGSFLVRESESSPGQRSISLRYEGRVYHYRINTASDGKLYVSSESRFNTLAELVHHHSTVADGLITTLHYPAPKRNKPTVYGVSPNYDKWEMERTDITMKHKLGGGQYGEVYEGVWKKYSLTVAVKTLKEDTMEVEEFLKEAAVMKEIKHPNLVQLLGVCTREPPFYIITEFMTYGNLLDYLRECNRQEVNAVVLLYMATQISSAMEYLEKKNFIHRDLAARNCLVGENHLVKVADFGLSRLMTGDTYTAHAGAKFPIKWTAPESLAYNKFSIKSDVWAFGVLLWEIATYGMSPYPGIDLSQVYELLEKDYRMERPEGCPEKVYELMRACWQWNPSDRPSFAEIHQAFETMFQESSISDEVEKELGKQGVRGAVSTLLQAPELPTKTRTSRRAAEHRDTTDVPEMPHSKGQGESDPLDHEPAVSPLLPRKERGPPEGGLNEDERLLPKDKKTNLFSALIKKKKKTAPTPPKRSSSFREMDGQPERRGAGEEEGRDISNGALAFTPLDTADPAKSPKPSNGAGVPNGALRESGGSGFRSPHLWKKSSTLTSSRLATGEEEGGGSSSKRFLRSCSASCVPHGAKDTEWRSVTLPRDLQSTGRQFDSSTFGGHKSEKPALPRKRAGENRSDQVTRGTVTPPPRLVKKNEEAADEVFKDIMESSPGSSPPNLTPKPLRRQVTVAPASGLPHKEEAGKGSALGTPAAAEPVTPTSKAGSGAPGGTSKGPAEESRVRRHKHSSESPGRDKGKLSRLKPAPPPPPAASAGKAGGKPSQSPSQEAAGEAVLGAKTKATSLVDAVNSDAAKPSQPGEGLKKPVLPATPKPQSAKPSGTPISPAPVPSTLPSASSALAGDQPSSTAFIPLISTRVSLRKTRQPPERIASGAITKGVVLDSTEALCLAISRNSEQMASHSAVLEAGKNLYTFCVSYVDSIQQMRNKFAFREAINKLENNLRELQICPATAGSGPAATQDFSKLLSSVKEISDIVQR
Sequence of human Ire1 (O75460 19-977): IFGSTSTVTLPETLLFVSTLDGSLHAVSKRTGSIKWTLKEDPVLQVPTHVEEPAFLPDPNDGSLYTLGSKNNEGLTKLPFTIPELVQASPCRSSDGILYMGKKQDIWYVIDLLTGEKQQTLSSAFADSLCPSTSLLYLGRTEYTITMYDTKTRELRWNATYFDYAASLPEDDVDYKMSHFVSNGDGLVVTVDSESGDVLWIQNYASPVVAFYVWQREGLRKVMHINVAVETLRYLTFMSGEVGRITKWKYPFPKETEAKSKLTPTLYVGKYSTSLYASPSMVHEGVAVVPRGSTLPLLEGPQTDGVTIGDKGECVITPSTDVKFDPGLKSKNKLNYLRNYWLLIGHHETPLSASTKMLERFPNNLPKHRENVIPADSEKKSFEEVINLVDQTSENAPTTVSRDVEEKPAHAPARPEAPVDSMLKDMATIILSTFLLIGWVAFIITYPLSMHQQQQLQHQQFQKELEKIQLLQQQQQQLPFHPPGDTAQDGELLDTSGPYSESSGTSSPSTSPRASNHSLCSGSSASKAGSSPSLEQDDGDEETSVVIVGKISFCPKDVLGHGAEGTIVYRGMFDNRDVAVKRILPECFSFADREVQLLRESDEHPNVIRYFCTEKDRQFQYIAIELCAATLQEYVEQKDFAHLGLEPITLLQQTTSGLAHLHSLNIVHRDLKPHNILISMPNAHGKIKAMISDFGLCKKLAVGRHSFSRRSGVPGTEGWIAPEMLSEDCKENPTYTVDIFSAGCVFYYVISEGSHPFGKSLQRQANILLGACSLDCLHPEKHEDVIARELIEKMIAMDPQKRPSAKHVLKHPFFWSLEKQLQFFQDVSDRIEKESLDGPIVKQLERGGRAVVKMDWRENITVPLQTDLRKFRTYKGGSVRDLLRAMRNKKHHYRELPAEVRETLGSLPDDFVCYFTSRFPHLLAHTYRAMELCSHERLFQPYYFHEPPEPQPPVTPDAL

O=C(Nc1ccc(Nc2nccc(Nc3cc(C4CC4)n[nH]3)n2)cc1)c1cccc(C(F)(F)F)c1 [AD74, N-(4-(4-(3-cyclopropyl-1H-pyrazol-5-ylamino)pyrimidin-2-ylamino)phenyl)-3-(trifluoromethyl)benzamide]
pIC50 (WT Src): 6.45
pIC50 (WT Abl): 5.67
In vitro cleavage of 32P-stem-loop RNA by human Ire1 (human Ire1): 0.0877
activation of Ire1 (Ire1): significant activation

Nc1ncnc2c1ncn2[C@@H]1O[C@H](COP(=O)(O)OP(=O)(O)O)[C@@H](O)[C@H]1O [ADP, reference compound]
effect of EDTA (chelation of magnesium) on RNase activity of Ire1KR32 stimulated by the substance (Ire1KR32): decreased by greater than an order of magnitude
increase of specific RNase activity by co-factor (Ire1KR32; HP21 substrate, Ire1KR, Ire1KR24, Ire1KR32 (FIG. 1D)): two orders of magnitude

N#CCc1ccc(Nc2nccc(Nc3cc(C4CC4)[nH]n3)n2)cc1 [APY24]
RNA cleavage (yIre1 activation) (yIre1): 0.04667
% splicing mRNA XBP-I Average ([1]; Tm 0.3 ug/ml + compound 2 μM): 28%
% splicing mRNA XBP-I Average ([1]; compound 2 μM): 30%
% splicing mRNA XBP-I Average ([1]; compound 10 μM): 44%
in vivo activation of Ire1 [1]: significant in vivo activation
activation of the RNase of Ire1KR32 (Ire1KR32): Potent activators
% fold induction to Control ([2]; Tm 0.3 ug/ml + compound 2 uM): −2%
Mean fluorescence ([2]; Tm 0.3 ug/ml + compound 2 uM): 2387
% fold induction to Control ([2]; compound 2 uM): 6%
Mean fluorescence ([2]; compound 2 uM): 2569
activation of Ire1 (Ire1): significant activation

c1cc(Nc2cc(C3CC3)[nH]n2)nc(Nc2ccc3[nH]cnc3c2)n1 [APY29]
RNA cleavage (yIre1 activation) (yIre1): 0.07509
% splicing mRNA XBP-I Average ([1]; Tm 0.3 ug/ml + compound 2 μM): 40%
% splicing mRNA XBP-I Average ([1]; compound 2 μM): 10%
% splicing mRNA XBP-I Average ([1]; compound 10 μM): 14%
activation of the RNase of Ire1KR32 (Ire1KR32): Potent activators
effect of EDTA (chelation of magnesium) on RNase activity of Ire1KR32 stimulated by the substance (Ire1KR32): remained unchanged
% fold induction to Control ([2]; Tm 0.3 ug/ml + compound 2 uM): 65%
Mean fluorescence ([2]; Tm 0.3 ug/ml + compound 2 uM): 4016
% fold induction to Control ([2]; compound 2 uM): 11%
Mean fluorescence ([2]; compound 2 uM): 2697
activation of Ire1 (Ire1): significant activation

OCCc1ccc(Nc2nccc(Nc3cc(C4CCCCC4)n[nH]3)n2)cc1 [APY33]
RNA cleavage (yIre1 activation) (yIre1): 0.00232
% splicing mRNA XBP-I Average ([1]; Tm 0.3 ug/ml + compound 2 μM): 8%
% splicing mRNA XBP-I Average ([1]; compound 2 μM): 8%
% splicing mRNA XBP-I Average ([1]; compound 10 μM): 18%
% fold induction to Control ([2]; Tm 0.3 ug/ml + compound 2 uM): 49%
Mean fluorescence ([2]; Tm 0.3 ug/ml + compound 2 uM): 3613
% fold induction to Control ([2]; compound 2 uM): 16%
Mean fluorescence ([2]; compound 2 uM): 2811
inhibition of Ire1 (Ire1): significant inhibition

N#CCc1ccc(Nc2nccc(Nc3cc(C4CCCC4)n[nH]3)n2)cc1 [APY67]
RNA cleavage (yIre1 activation) (yIre1): 0.006034
% splicing mRNA XBP-I Average ([1]; Tm 0.3 ug/ml + compound 2 μM): 21%
% splicing mRNA XBP-I Average ([1]; compound 2 μM): 20%
% splicing mRNA XBP-I Average ([1]; compound 10 μM): 66%
% fold induction to Control ([2]; Tm 0.3 ug/ml + compound 2 uM): −6%
Mean fluorescence ([2]; Tm 0.3 ug/ml + compound 2 uM): 2289
% fold induction to Control ([2]; compound 2 uM): −4%
Mean fluorescence ([2]; compound 2 uM): 2326
activation of Ire1 (Ire1): significant activation

Cc1cc(Nc2cc(C3CC3)n[nH]2)nc(Nc2ccc(CC#N)cc2)n1 [APY69]
RNA cleavage (yIre1 activation) (yIre1): 0.06355
% splicing mRNA XBP-I Average ([1]; Tm 0.3 ug/ml + compound 2 μM): 36%
% splicing mRNA XBP-I Average ([1]; compound 2 μM): 23%
% splicing mRNA XBP-I Average ([1]; compound 10 μM): 40%
in vivo activation of Ire1 [1]: significant in vivo activation
% fold induction to Control ([2]; Tm 0.3 ug/ml + compound 2 uM): 16%
Mean fluorescence ([2]; Tm 0.3 ug/ml + compound 2 uM): 2805
% fold induction to Control ([2]; compound 2 uM): 18%
Mean fluorescence ([2]; compound 2 uM): 2864
activation of Ire1 (Ire1): significant activation

N#CCc1ccc(Nc2nccc(Nc3cc(C4CCC4)n[nH]3)n2)cc1 [APY77]
RNA cleavage (yIre1 activation) (yIre1): 0.006479
% splicing mRNA XBP-I Average ([1]; Tm 0.3 ug/ml + compound 2 μM): 37%
% splicing mRNA XBP-I Average ([1]; compound 2 μM): 21%
% splicing mRNA XBP-I Average ([1]; compound 10 μM): 37%
% fold induction to Control ([2]; Tm 0.3 ug/ml + compound 2 uM): 9%
Mean fluorescence ([2]; Tm 0.3 ug/ml + compound 2 uM): 2648
% fold induction to Control ([2]; compound 2 uM): 6%
Mean fluorescence ([2]; compound 2 uM): 2570
activation of Ire1 (Ire1): significant activation

Cc1ccc(-c2cc(Nc3nc(Nc4ccc(CC#N)cc4)nc4ccccc34)[nH]n2)s1 [APY85]
RNA cleavage (yIre1 activation) (yIre1): 0.003287
% splicing mRNA XBP-I Average ([1]; Tm 0.3 ug/ml + compound 2 μM): 13%
% splicing mRNA XBP-I Average ([1]; compound 2 μM): 15%
% splicing mRNA XBP-I Average ([1]; compound 10 μM): 14%
activation of Ire1 (Ire1): significant activation
